Read-outs that look alike come from different tables or passages of the source.
Tests used:
Test in all cases: Further analysis of a plurality of inhibitors and a plurality of kinases (Table 5 inhibition results)
Assay type in all cases: biochemical
Design in all cases: scale not given here
kinases of Table 5 [1] = target: kinases of Table 5 (Homo sapiens, UniProt P24723); settings: for Inhibition level: kinase PRKCH; for Inhibition Results (Level): kinase PRKCH (Part II, plate B3, Domain 0)
From the text: (§1) The wash solution is then discarded.

kinases of Table 5 [2] = target: kinases of Table 5 (Homo sapiens, UniProt P21802); settings: for Inhibition level: kinase FGFR2
From the text: as §1

kinases of Table 5 [3] = target: kinases of Table 5 (Homo sapiens, UniProt P68400); settings: for Inhibition Results (Level): kinase CSNK2A1 (Part II, plate D9, Domain 0)
From the text: as §1

kinases of Table 5 [4] = target: T1, kinases of Table 5 (Homo sapiens, UniProt Q08881); settings: kinase ITK (Part I, plate E4, Domain 0); inhibitor 100 uM
T1 sequence (Q08881 1-620): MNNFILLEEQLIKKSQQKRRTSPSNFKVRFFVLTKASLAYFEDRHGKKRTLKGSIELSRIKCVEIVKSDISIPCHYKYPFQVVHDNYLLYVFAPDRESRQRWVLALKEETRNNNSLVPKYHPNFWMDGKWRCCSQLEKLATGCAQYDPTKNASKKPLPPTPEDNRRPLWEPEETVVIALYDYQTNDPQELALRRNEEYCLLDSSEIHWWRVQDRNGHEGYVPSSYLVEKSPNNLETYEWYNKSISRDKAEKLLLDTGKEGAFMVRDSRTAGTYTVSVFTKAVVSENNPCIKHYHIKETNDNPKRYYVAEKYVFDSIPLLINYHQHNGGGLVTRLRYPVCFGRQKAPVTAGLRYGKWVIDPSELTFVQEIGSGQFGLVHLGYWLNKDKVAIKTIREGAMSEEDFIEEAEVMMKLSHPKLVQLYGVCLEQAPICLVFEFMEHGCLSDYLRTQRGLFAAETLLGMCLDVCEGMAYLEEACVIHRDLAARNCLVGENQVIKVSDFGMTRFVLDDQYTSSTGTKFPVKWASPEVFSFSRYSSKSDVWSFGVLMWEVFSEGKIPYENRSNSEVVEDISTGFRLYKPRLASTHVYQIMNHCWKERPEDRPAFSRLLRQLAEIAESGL
From the text: as §1

kinases of Table 5 [5] = target: T2, kinases of Table 5 (Homo sapiens, UniProt O43318); settings: kinase MAP3K7 (Part I, plate G9, Domain 0)
T2 sequence (O43318 1-606): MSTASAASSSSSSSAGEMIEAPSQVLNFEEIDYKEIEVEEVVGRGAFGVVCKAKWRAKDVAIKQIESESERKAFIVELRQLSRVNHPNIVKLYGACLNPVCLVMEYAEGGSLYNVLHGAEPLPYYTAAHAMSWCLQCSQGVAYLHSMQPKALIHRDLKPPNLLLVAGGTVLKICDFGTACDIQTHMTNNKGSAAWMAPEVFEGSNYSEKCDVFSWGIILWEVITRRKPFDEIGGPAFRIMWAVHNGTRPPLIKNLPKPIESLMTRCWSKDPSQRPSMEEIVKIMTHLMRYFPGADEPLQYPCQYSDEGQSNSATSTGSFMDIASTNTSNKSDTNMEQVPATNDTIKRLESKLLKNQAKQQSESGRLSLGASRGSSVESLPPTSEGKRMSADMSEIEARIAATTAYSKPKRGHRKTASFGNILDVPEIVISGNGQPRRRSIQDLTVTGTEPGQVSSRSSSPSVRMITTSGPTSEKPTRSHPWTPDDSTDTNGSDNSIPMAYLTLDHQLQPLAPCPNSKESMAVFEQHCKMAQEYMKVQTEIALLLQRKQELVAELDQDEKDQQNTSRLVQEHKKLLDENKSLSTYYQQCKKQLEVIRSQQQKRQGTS
From the text: as §1

kinases of Table 5 [6] = target: kinases of Table 5 (Homo sapiens, UniProt P06241)
From the text: as §1

kinases of Table 5 [7] = target: kinases of Table 5 (Homo sapiens, UniProt P11309)
From the text: as §1

kinases of Table 5 [8] = target: kinases of Table 5 (Homo sapiens, UniProt P16591); settings: inhibitor 100 uM; for Inhibition level: kinase FER; for Inhibition Results (Level): kinase FER (Part II, plate H5, Domain 1)
From the text: as §1

kinases of Table 5 [9] = target: T3, kinases of Table 5 (Homo sapiens, UniProt Q9Y616); settings: kinase IRAK3 (Part I, plate C9, Domain 1); inhibitor 100 uM
T3 sequence (Q9Y616 1-596): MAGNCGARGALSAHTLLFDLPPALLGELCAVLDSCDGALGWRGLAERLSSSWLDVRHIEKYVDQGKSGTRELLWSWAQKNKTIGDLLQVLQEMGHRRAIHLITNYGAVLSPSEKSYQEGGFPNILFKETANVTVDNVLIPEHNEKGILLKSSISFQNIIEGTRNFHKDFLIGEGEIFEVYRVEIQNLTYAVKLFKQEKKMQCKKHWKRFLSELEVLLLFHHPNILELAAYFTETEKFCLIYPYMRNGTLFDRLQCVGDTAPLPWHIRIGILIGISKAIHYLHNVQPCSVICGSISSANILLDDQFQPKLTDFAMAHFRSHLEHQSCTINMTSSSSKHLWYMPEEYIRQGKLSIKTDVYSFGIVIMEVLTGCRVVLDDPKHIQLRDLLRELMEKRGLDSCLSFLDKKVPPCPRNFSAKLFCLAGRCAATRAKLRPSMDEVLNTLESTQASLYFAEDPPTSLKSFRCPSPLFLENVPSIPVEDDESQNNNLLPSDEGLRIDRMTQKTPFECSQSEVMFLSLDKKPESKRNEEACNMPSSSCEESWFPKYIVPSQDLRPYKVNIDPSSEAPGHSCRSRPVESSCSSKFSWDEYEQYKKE
From the text: as §1

[10] = kinase FGFR2 (Part I, plate G8, Domain 1), inhibitor 100 uM
[11] = kinase CSNK2A1, inhibitor 100 uM
[12] = kinase FYN (Part I, plate A4, Domain 0), inhibitor 100 uM
[13] = kinase PIM1 (Part I, plate C2, Domain 1), inhibitor 100 uM
[14] = kinase CSNK2A1, concentration not given
[15] = kinase FGFR2 (Part II, plate B4, Domain 1), inhibitor 100 uM

kinases of Table 5 (Homo sapiens, UniProt P68400), sequence (P68400 whole entry): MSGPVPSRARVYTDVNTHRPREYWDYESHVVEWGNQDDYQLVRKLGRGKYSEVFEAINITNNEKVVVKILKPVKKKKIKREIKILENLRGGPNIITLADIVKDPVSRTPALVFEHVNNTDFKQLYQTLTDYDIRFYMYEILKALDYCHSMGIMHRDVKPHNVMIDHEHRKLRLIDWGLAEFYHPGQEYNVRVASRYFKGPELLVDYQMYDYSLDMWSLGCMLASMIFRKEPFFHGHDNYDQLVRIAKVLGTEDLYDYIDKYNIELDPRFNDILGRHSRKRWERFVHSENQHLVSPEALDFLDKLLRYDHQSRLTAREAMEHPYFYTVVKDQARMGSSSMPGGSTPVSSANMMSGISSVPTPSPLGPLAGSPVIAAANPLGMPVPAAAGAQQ
kinases of Table 5 (Homo sapiens, UniProt P24723), sequence (P24723 whole entry): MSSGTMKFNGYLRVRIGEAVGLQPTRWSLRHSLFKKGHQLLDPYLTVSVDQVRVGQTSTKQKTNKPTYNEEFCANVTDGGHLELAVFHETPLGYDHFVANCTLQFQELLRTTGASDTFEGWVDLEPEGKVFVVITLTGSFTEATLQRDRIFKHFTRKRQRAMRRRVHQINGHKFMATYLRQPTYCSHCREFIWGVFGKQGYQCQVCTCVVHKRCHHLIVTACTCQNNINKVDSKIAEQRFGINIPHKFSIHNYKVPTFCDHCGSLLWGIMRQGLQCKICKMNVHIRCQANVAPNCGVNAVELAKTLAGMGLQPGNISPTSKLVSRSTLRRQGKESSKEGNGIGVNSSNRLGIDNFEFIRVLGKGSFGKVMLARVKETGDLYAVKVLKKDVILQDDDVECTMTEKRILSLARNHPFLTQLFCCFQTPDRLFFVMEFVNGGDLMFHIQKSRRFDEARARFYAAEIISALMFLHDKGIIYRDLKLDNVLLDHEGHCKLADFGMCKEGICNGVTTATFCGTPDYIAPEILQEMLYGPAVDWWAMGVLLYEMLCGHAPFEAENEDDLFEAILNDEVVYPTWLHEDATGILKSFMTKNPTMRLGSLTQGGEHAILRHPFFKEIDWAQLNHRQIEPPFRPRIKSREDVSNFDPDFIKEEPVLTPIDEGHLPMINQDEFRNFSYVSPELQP
kinases of Table 5 (Homo sapiens, UniProt P16591), sequence (P16591 whole entry): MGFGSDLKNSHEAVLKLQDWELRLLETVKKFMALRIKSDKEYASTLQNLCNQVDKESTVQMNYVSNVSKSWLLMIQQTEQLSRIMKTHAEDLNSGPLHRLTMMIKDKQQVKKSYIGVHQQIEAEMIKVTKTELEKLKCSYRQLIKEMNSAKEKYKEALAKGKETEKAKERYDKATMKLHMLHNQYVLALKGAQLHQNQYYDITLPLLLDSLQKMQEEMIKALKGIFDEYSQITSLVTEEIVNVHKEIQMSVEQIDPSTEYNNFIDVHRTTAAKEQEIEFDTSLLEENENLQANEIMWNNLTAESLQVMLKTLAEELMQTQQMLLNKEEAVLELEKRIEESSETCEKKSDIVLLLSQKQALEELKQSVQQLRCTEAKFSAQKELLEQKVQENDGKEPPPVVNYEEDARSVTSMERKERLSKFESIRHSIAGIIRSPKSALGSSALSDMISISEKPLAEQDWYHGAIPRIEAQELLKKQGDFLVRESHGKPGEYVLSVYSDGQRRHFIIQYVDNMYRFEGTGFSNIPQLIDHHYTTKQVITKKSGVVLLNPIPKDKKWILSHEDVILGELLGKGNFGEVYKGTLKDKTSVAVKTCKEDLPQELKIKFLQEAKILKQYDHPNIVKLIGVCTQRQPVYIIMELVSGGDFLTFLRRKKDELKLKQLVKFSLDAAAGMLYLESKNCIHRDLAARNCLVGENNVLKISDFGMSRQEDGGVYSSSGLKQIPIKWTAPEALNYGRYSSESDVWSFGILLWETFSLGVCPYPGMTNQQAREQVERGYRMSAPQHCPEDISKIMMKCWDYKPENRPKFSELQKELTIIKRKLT
kinases of Table 5 (Homo sapiens, UniProt P21802), sequence (P21802 22-821): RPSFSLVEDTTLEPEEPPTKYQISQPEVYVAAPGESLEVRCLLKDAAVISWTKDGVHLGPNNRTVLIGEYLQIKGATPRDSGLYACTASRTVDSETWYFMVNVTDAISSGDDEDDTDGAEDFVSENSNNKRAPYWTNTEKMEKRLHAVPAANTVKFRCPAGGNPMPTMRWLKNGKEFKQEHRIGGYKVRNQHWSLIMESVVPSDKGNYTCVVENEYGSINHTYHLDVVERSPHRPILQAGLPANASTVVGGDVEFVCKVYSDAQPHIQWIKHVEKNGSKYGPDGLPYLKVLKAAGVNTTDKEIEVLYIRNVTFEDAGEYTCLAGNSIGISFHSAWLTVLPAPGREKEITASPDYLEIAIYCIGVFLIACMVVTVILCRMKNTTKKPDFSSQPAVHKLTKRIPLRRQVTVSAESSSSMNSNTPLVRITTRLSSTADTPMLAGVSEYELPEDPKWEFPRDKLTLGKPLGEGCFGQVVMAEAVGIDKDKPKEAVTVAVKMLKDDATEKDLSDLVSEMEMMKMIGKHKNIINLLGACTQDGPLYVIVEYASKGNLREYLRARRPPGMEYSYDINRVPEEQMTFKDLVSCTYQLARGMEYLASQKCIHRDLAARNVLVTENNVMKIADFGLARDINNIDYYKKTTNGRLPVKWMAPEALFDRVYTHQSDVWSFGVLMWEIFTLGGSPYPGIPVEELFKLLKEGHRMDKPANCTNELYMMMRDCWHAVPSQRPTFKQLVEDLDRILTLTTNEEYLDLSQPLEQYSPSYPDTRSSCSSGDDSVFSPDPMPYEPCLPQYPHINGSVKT
kinases of Table 5 (Homo sapiens, UniProt P11309), sequence (P11309 whole entry): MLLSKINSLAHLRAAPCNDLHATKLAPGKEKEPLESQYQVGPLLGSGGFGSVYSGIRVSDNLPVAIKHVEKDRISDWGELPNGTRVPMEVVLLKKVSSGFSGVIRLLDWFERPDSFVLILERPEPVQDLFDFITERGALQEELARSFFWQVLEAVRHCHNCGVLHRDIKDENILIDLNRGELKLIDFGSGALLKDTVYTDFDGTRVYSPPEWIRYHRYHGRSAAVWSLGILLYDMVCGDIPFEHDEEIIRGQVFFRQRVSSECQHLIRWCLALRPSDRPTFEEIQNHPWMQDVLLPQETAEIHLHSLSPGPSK
kinases of Table 5 (Homo sapiens, UniProt P06241), sequence (P06241 whole entry): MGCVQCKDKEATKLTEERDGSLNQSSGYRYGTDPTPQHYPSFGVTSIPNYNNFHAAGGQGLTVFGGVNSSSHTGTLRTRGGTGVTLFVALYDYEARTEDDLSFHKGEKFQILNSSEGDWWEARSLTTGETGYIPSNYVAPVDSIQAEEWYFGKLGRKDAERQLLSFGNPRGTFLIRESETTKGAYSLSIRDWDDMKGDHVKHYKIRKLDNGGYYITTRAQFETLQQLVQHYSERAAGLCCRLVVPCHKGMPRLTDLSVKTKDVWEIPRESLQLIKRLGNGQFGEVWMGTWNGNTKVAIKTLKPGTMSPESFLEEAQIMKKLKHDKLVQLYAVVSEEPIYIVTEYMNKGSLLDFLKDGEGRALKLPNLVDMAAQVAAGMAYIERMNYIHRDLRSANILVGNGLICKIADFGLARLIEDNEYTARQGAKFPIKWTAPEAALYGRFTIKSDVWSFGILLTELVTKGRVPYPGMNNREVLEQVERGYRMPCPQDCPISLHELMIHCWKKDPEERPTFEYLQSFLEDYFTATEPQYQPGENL

| SMILES | Inhibition level (kinases of Table 5 [1]; inhibitor 100 uM) | Inhibition Results (Level) (kinases of Table 5 [2]; [10]) | Inhibition level (kinases of Table 5 [2]; inhibitor 100 uM) | Inhibition level (kinases of Table 5 [3]; [11]) | Inhibition Results (Level) (kinases of Table 5 [4]) | Inhibition Results (Level) (kinases of Table 5 [5]; inhibitor 100 uM) | Inhibition Results (Level) (kinases of Table 5 [6]; [12]) | Inhibition Results (Level) (kinases of Table 5 [7]; [13]) | Inhibition level (kinases of Table 5 [8]) | Inhibition Results (Level) (kinases of Table 5 [9]) | Inhibition Results (Level) (kinases of Table 5 [1]; inhibitor 100 uM) | Inhibition Results (Level) (kinases of Table 5 [2]; [15]) | Inhibition Results (Level) (kinases of Table 5 [8]) | other results |
| --- | --- | --- | --- | --- | --- | --- | --- | --- | --- | --- | --- | --- | --- | --- |
| N#C/C(=C/c1ccc(O)c(O)c1)C(=O)NCc1ccccc1 [AG 490] | 2 | 2 | 2 | 2 | 1 | 0 | 2 | 2 | 2 | 0 | – | – | – | – |
| COc1cc2ncnc(Nc3cccc(Cl)c3)c2cc1OC [AG 1478] | 0 | 2 | 2 | 2 | 1 | 0 | 2 | 1 | 1 | 2 | – | – | – | – |
| O=c1c(-c2ccc(O)cc2)coc2cc(O)cc(O)c12 [Genistein] | 2 | 2 | 2 | 2 | 2 | 1 | 2 | 2 | 2 | 2 | – | – | – | Inhibition level (kinases of Table 5 [1]; concentration not given): 0; Inhibition Results (Level) (kinases of Table 5 [2]; kinase FGFR2 (Part I, plate G8, Domain 1), inhibitor <3.7 mM): 0; Inhibition level (kinases of Table 5 [2]; concentration not given): 1; Inhibition level (kinases of Table 5 [3]; [14]): 0; Inhibition Results (Level) (kinases of Table 5 [5]; inhibitor <3.7 mM): 0; Inhibition Results (Level) (kinases of Table 5 [6]; kinase FYN (Part I, plate A4, Domain 0), inhibitor <3.7 mM): 1; Inhibition Results (Level) (kinases of Table 5 [7]; kinase PIM1 (Part I, plate C2, Domain 1), inhibitor <3.7 mM): 0 |
| O=S(=O)(NCCNC/C=C/c1ccc(Br)cc1)c1cccc2cnccc12 [H-89] | – | 2 | – | – | 1 | 2 | 2 | 2 | – | 0 | 2 | 2 | 2 | Inhibition Results (Level) (kinases of Table 5 [3]; inhibitor 100 uM): 0 |
| CC(C)(C)n1nc(-c2ccc(Cl)cc2)c2c(N)ncnc21 [PP2] | 2 | 2 | 2 | 2 | 2 | 2 | – | 2 | 2 | 2 | – | – | – | – |
| O=c1c(O)c(-c2ccc(O)c(O)c2)oc2cc(O)cc(O)c12 [Quercetin] | – | 0 | – | – | 0 | – | – | – | – | 0 | 0 | 0 | 1 | – |
| Cn1cc(C2=C(c3cn(CCCSC(=N)N)c4ccccc34)C(=O)NC2=O)c2ccccc21 [Ro-31-8220] | 2 | 2 | 2 | 2 | 2 | 2 | 2 | 0 | 2 | 2 | – | – | – | Inhibition level (kinases of Table 5 [1]; concentration not given): 2; Inhibition Results (Level) (kinases of Table 5 [2]; kinase FGFR2 (Part I, plate G8, Domain 1), inhibitor 90 uM): 2; Inhibition level (kinases of Table 5 [2]; concentration not given): 0; Inhibition level (kinases of Table 5 [3]; [14]): 0; Inhibition Results (Level) (kinases of Table 5 [5]; inhibitor 90 uM): 2; Inhibition Results (Level) (kinases of Table 5 [6]; kinase FYN (Part I, plate A4, Domain 0), inhibitor 90 uM): 0; Inhibition Results (Level) (kinases of Table 5 [7]; kinase PIM1 (Part I, plate C2, Domain 1), inhibitor 90 uM): 2 |
| CC(=O)c1c(O)c(C)c(O)c(Cc2c(O)c3c(c(C(=O)/C=C/c4ccccc4)c2O)OC(C)(C)C=C3)c1O [Rottlerin (Mallotoxin)] | – | 2 | – | – | 1 | 2 | 2 | 2 | – | 2 | 2 | 0 | 2 | Inhibition Results (Level) (kinases of Table 5 [3]; inhibitor 100 uM): 2 |
| CN[C@@H]1C[C@H]2O[C@@](C)([C@@H]1OC)n1c3ccccc3c3c4c(c5c6ccccc6n2c5c31)C(=O)NC4 [Staurosporine] | – | – | – | – | – | – | – | – | – | – | – | – | – | Inhibition level (kinases of Table 5 [3]): 2; Inhibition Results (Level) (kinases of Table 5 [6]): 2; Inhibition Results (Level) (kinases of Table 5 [7]): 2 |
